Reference: patent publication US8778919B2, “Cyclic anilino—pyridinotriazines” (Janssen Pharmaceutica NV, priority 2005, dated 2014)
pIC50: −log10 of the molar value.

Key:
Assay type in all cases: biochemical
GSK-3α = GSK-3α (Homo sapiens, UniProt P49840); assay: GSK-3 kinase assay (C1), GSK-3α; conditions: 1 μM ATP, read-out: C1 Score α
Summary of the method: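 Radiometric SPA at room temperature in 25 mM Tris pH 7.4 with 10 mM MgCl2, 1 mM DTT, 5.7 ng/μl GSK-3β or 0.25 ng/μl GSK-3α, 5 μM biotinylated CREB peptide and 1 μM ATP plus ^33P-ATP. Stopped after 1 h; IC50 from dose-response versus no-compound control, reported as pIC50 score bands.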

CDK1/cyclinB (h) = CDK1/cyclinB (h) (Homo sapiens, UniProt P06493); assay: Kinase profiling C3.2 CDK1/cyclinB human; conditions: test concentration of 10^−6 M
Chain of CDK1/cyclinB (h) (P06493 whole entry): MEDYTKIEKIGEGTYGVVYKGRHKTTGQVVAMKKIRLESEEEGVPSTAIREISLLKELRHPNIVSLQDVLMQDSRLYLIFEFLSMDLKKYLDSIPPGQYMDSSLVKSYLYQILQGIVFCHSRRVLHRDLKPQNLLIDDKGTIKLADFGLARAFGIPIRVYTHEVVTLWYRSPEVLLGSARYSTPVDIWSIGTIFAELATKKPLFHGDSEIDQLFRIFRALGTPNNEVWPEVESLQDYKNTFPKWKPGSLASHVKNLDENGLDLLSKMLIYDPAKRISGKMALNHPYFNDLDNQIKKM
Chain of CDK1/cyclinB (h) (P14635 whole entry partner): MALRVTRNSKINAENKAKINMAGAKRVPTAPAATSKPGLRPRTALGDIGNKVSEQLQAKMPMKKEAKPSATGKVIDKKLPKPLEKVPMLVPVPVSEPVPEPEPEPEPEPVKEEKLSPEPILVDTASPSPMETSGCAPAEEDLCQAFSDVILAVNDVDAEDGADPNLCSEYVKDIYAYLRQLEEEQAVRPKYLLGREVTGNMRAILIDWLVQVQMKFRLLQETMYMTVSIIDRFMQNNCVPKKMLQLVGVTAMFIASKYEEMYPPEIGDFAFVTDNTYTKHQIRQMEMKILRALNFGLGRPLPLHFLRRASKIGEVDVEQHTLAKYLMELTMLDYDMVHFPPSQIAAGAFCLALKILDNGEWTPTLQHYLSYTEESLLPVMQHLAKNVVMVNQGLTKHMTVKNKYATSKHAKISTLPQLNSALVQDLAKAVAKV
Summary of the method: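 Radiometric filter-binding assay: human CDK1/cyclinB (5-10 mU) with 0.1 mg/ml histone H1 substrate and [γ-33P]ATP in 8 mM MOPS pH 7.0, 10 mM Mg acetate, 40 min at room temperature. Stopped with phosphoric acid; substrate-bound 33P counted on P30 filtermat by scintillation.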

CDK2/cyclinA (h) = CDK2/cyclinA (h) (Homo sapiens, UniProt P24941); assay: Kinase profiling C3.3 CDK2/cyclinA human; conditions: test concentration of 10^−6 M
Summary of the method: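 Human CDK2/cyclinA (5-10 mU) phosphorylates 0.1 mg/ml histone H1 in 8 mM MOPS pH 7.0, EDTA, 10 mM Mg acetate with [γ-33P]ATP, 40 min at room temperature. After phosphoric acid stop, filter-bound 33P counted by scintillation.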

CDK2/cyclinE (h) = CDK2/cyclinE (h) (Homo sapiens, UniProt P24941); assay: Kinase profiling C3.4 CDK2/cyclinE human; conditions: test concentration of 10^−6 M
Summary of the method: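 Radiometric filter-binding assay: 5-10 mU enzyme with 0.1 mg/ml histone H1 in 8 mM MOPS pH 7.0, 0.2 mM EDTA, 10 mM Mg acetate and [γ-33P]ATP. Incubated 40 min at room temperature, stopped with phosphoric acid. Substrate-bound 33P counted on P30 filtermat.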

CDK3/cyclinE (h) = CDK3/cyclinE (h) (Homo sapiens, UniProt Q00526); assay: Kinase profiling C3.5 CDK3/cyclinE human; conditions: test concentration of 10^−6 M
Summary of the method: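 Human CDK3/cyclinE (5-10 mU) phosphorylated 0.1 mg/ml histone H1 in 8 mM MOPS pH 7.0, 0.2 mM EDTA and 10 mM MgAcetate with [γ-33P]ATP. Reaction ran 40 min at room temperature and was stopped with phosphoric acid. Substrate-bound radioactivity was captured on P30 filtermat and measured by scintillation counting.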

CDK5/p35 human = CDK5/p35 human (Homo sapiens, UniProt Q00535); assay: Kinase profiling C3.6 CDK5/p35 human; conditions: CDK5/p35, test concentration of 10^−6 M
Chain of CDK5/p35 human (Q00535 whole entry): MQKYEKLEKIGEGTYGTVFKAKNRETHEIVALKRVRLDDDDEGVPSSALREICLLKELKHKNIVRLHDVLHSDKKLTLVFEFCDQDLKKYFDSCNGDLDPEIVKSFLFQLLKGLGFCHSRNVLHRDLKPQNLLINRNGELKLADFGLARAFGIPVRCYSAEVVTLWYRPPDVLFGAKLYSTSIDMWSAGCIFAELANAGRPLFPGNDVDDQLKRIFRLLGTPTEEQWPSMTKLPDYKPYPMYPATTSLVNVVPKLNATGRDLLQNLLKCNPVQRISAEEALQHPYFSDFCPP
Chain of CDK5/p35 human (Q15078 whole entry partner): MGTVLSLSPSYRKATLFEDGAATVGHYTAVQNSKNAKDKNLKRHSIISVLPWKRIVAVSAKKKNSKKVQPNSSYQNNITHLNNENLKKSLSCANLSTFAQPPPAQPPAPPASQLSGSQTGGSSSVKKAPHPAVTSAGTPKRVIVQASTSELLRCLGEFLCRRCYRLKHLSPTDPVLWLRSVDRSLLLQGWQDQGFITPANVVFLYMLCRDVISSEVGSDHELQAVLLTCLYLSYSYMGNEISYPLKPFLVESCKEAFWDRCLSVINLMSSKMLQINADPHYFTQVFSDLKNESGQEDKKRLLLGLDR
Summary of the method: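 Radiometric filter-binding assay: human CDK5/p35 (5-10 mU) with 0.1 mg/ml histone H1 substrate in 8 mM MOPS pH 7.0, 0.2 mM EDTA, 10 mM Mg acetate and [γ-33P]ATP. Incubated 40 min at room temperature, stopped with phosphoric acid. Substrate 33P incorporation counted on P30 filtermat by scintillation.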

Chain of GSK-3α (P49840 whole entry, species assumed): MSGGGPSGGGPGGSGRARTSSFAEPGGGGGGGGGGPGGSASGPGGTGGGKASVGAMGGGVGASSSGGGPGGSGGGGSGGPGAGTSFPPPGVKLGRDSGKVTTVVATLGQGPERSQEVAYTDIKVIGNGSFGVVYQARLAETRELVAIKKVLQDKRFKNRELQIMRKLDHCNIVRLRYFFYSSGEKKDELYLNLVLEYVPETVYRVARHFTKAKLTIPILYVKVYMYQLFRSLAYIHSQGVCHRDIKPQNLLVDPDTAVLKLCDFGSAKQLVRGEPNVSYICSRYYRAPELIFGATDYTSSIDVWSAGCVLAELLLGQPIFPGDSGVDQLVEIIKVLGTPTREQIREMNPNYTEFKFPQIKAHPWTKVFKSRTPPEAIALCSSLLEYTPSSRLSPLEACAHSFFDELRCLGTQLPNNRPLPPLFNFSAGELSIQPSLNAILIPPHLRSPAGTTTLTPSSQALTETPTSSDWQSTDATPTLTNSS

| SMILES | pIC50 (GSK-3α) | C3.2 score (CDK1/cyclinB (h)) | C3.3 score (CDK2/cyclinA (h)) | C3.4 score (CDK2/cyclinE (h)) | C3.5 score (CDK3/cyclinE (h)) | C3.6 score (CDK5/p35 human) |
| --- | --- | --- | --- | --- | --- | --- |
| O=C1NCCCc2cc(ccc2F)-c2ncnc(n2)Nc2cc(Cl)cc(c2)CN[C@H]1CO [Compound 71] | > 8.00 | 4 (Score 4 = >80% inhibition) | 2 (Score 2 = 30-60% inhibition) | 4 (Score 4 = >80% inhibition) | 4 (Score 4 = >80% inhibition) | 4 (Score 4 = >80% inhibition) |
| O=C1NCCCc2cncc(c2)-c2ncnc(n2)Nc2cccc(c2)CN[C@H]1CO [Compound 81] | > 8.00 | 4 (Score 4 = >80% inhibition) | 3 (Score 3 = 60-80% inhibition) | 4 (Score 4 = >80% inhibition) | 3 (Score 3 = 60-80% inhibition) | 3 (Score 3 = 60-80% inhibition) |
